Strand notation (5' to 3'): a small letter for the sugar, then the base; units joined by * are phosphorothioate-linked, units joined directly phosphodiester-linked; [ ] holds rarer units or linkages, { } end groups; capitals alone tell only the bases. e = 2'-O-(2-methoxyethyl) (MOE); [5mC] = 5-methylcytosine; d = 2'-deoxy (DNA)
How the values were obtained:
human Factor 7 mRNA [1] = experiment: Antisense inhibition of human Factor 7 mRNA in HepB3 cells, 50 nM antisense oligonucleotide, lipofectin; format: cell-based; conditions: lipofectin, approximately 24 hours
Summary of the method: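 Cells plated at 4,000 per well were transfected and harvested after approximately 24 hours of treatment. Transcript levels, measured with primer probe set RTS 2927, were normalised to total RNA by RIBOGREEN®. Values are percent inhibition relative to untreated control cells.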

human Factor 7 mRNA [2] = experiment: Dose-dependent antisense inhibition of human Factor 7 in HepB3 cells, electroporation; format: cell-based
Summary of the method: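 HepB3 cells, 20,000/well, electroporated with gapmers at 3.125–100 μM; about 16 h treatment. Factor 7 mRNA by qRT-PCR with primer probe set RTS 2927, normalized to RIBOGREEN total RNA; percent inhibition versus untreated cells.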

[3] = Table 1, 50 nM, relative to untreated control cells
[4] = 50 nM antisense oligonucleotide, Factor 7 mRNA by real-time RT-PCR (RTS 2927), relative to untreated control
[5] = 3.125 μM, approx. 16 hours (Table 15, Example 7)
[6] = 3.125 μM, approx. 16 hours (Table 16, Example 8 confirmation)
[7] = 6.25 μM, approx. 16 hours (Table 15, Example 7)
[8] = 6.25 μM, approx. 16 hours (Table 16, Example 8 confirmation)
[9] = 12.5 μM, approx. 16 hours (Table 15, Example 7)
[10] = 12.5 μM, approx. 16 hours (Table 16, Example 8 confirmation)
[11] = 25 μM, approx. 16 hours (Table 15, Example 7)
[12] = 25 μM, approx. 16 hours (Table 16, Example 8 confirmation)
[13] = 50 μM, approx. 16 hours (Table 15, Example 7)
[14] = 50 μM, approx. 16 hours (Table 16, Example 8 confirmation)
[15] = 100 μM, approx. 16 hours (Table 15, Example 7)
[16] = 100 μM, approx. 16 hours (Table 16, Example 8 confirmation)

Substance	% Inhibition (human Factor 7 mRNA [1]; [3])	% Inhibition (human Factor 7 mRNA [1]; Table 13 (microwalk), 50 nM)	% Inhibition (human Factor 7 mRNA [1]; [4])	percent inhibition of Factor 7 mRNA, relative to untreated control cells (human Factor 7 mRNA [2]; [5])	percent inhibition of Factor 7 mRNA, relative to untreated control cells (human Factor 7 mRNA [2]; [6])	percent inhibition of Factor 7 mRNA, relative to untreated control cells (human Factor 7 mRNA [2]; [7])	percent inhibition of Factor 7 mRNA, relative to untreated control cells (human Factor 7 mRNA [2]; [8])	percent inhibition of Factor 7 mRNA, relative to untreated control cells (human Factor 7 mRNA [2]; [9])	percent inhibition of Factor 7 mRNA, relative to untreated control cells (human Factor 7 mRNA [2]; [10])	percent inhibition of Factor 7 mRNA, relative to untreated control cells (human Factor 7 mRNA [2]; [11])	percent inhibition of Factor 7 mRNA, relative to untreated control cells (human Factor 7 mRNA [2]; [12])	percent inhibition of Factor 7 mRNA, relative to untreated control cells (human Factor 7 mRNA [2]; [13])	percent inhibition of Factor 7 mRNA, relative to untreated control cells (human Factor 7 mRNA [2]; [14])	percent inhibition of Factor 7 mRNA, relative to untreated control cells (human Factor 7 mRNA [2]; [15])	percent inhibition of Factor 7 mRNA, relative to untreated control cells (human Factor 7 mRNA [2]; [16])
407935 (antisense eA*eT*eG*e[5mC]*eA*dT*dG*dG*dT*dG*dA*dT*dG*d[5mC]*dT*eT*e[5mC]*eT*eG*eA) [compound 407935]	94%	79%	72%	37%	63%	47%	79%	67%	84%	73%	90%	80%	90%	87%	91%
407939 (antisense eT*eG*e[5mC]*eA*eG*d[5mC]*d[5mC]*d[5mC]*dG*dG*d[5mC]*dA*d[5mC]*d[5mC]*d[5mC]*eA*eG*e[5mC]*eG*eA) [compound 407939]	93%		76%	18%	35%	28%	60%	42%	60%	56%	73%	68%	81%	82%	83%

— patent US9029337B2, “Modulation of factor 7 expression” (Isis Pharmaceuticals, Inc., priority 2007, dated 2015)
